Measurements from the NIST ThermoML archive (doi:10.1021/je201002j).

Experiments:
[1] = molar heat capacity at constant pressure; settings: 101.33 kPa, Liquid, Small sample (50 mg) DSC
[2] = 101.33 kPa, Liquid, Vibrating tube method

BrCCCCCCCCBr [1,8-dibromooctane]
[1]
Settings | molar heat capacity at constant pressure [J/K/mol]
288.15 K | 302.23
289.65 K | 302.83
291.15 K | 303.43
292.65 K | 304.03
294.15 K | 304.63
295.65 K | 305.23
297.15 K | 305.83
298.15 K | 306.23
298.65 K | 306.43
300.15 K | 307.03
301.65 K | 307.63
303.15 K | 308.23
304.65 K | 308.82
306.15 K | 309.42
307.65 K | 310.02
309.15 K | 310.61
310.65 K | 311.21
312.15 K | 311.8
313.65 K | 312.39
315.15 K | 312.99
316.65 K | 313.58
318.15 K | 314.17
319.65 K | 314.76
321.15 K | 315.35
322.65 K | 315.94
324.15 K | 316.53
325.65 K | 317.12
327.15 K | 317.71
328.65 K | 318.3
330.15 K | 318.88
331.65 K | 319.47
333.15 K | 320.05
334.65 K | 320.64
336.15 K | 321.22
337.65 K | 321.81
339.15 K | 322.39
340.65 K | 322.97
342.15 K | 323.56
343.65 K | 324.14
345.15 K | 324.72
346.65 K | 325.3
348.15 K | 325.88
349.65 K | 326.46
351.15 K | 327.04
352.65 K | 327.62
354.15 K | 328.19
355.15 K | 328.58

BrCCCCCCCCCBr [1,9-dibromononane]
[1]
Settings | molar heat capacity at constant pressure [J/K/mol]
286.65 K | 330.9
288.15 K | 331.44
289.65 K | 332
291.15 K | 332.56
292.65 K | 333.14
294.15 K | 333.72
295.65 K | 334.3
297.15 K | 334.9
298.15 K | 335.29
298.65 K | 335.5
300.15 K | 336.1
301.65 K | 336.72
303.15 K | 337.34
304.65 K | 337.96
306.15 K | 338.59
307.65 K | 339.23
309.15 K | 339.87
310.65 K | 340.52
312.15 K | 341.17
313.65 K | 341.83
315.15 K | 342.49
316.65 K | 343.16
318.15 K | 343.83
319.65 K | 344.5
321.15 K | 345.18
322.65 K | 345.86
324.15 K | 346.54
325.65 K | 347.22
327.15 K | 347.91
328.65 K | 348.6
330.15 K | 349.3
331.65 K | 349.99
333.15 K | 350.69
334.65 K | 351.39
336.15 K | 352.08
337.65 K | 352.78
339.15 K | 353.49
340.65 K | 354.19
342.15 K | 354.89
343.65 K | 355.59
345.15 K | 356.29
346.65 K | 356.99
348.15 K | 357.69
349.65 K | 358.39
351.15 K | 359.09
352.65 K | 359.79
354.15 K | 360.49
355.15 K | 360.95

BrCCCCCCCCCCCBr [1,11-dibromoundecane]
[1]
Settings | molar heat capacity at constant pressure [J/K/mol]
285.15 K | 389.4
286.65 K | 389.99
288.15 K | 390.59
289.65 K | 391.2
291.15 K | 391.83
292.65 K | 392.47
294.15 K | 393.12
295.65 K | 393.79
297.15 K | 394.47
298.15 K | 394.92
298.65 K | 395.16
300.15 K | 395.85
301.65 K | 396.56
303.15 K | 397.28
304.65 K | 398.01
306.15 K | 398.75
307.65 K | 399.5
309.15 K | 400.25
310.65 K | 401.02
312.15 K | 401.79
313.65 K | 402.57
315.15 K | 403.35
316.65 K | 404.15
318.15 K | 404.94
319.65 K | 405.75
321.15 K | 406.56
322.65 K | 407.37
324.15 K | 408.19
325.65 K | 409.01
327.15 K | 409.84
328.65 K | 410.67
330.15 K | 411.5
331.65 K | 412.33
333.15 K | 413.17
334.65 K | 414.01
336.15 K | 414.84
337.65 K | 415.68
339.15 K | 416.53
340.65 K | 417.37
342.15 K | 418.21
343.65 K | 419.04
345.15 K | 419.88
346.65 K | 420.72
348.15 K | 421.55
349.65 K | 422.38
351.15 K | 423.21
352.65 K | 424.04
354.15 K | 424.86
355.15 K | 425.41

BrCCCCCCCCCCCCBr [1,12-dibromododecane]
[1]
Settings | molar heat capacity at constant pressure [J/K/mol]
310.65 K | 432.62
312.15 K | 433.39
313.65 K | 434.17
315.15 K | 434.98
316.65 K | 435.79
318.15 K | 436.62
319.65 K | 437.46
321.15 K | 438.31
322.65 K | 439.17
324.15 K | 440.04
325.65 K | 440.91
327.15 K | 441.8
328.65 K | 442.68
330.15 K | 443.57
331.65 K | 444.47
333.15 K | 445.36
334.65 K | 446.26
336.15 K | 447.15
337.65 K | 448.04
339.15 K | 448.93
340.65 K | 449.82
342.15 K | 450.69
343.65 K | 451.57
345.15 K | 452.43
346.65 K | 453.29
348.15 K | 454.13
349.65 K | 454.96
351.15 K | 455.78
352.65 K | 456.59
354.15 K | 457.38
355.15 K | 457.9

ClCCBr [1-bromo-2-chloroethane]
[2]
Settings | mass density [kg/m3]
288.15 K | 1742.45
298.15 K | 1726.56
308.15 K | 1710.57
318.15 K | 1693.61

ClCCCBr [1-bromo-3-chloropropane]
[2]
Settings | mass density [kg/m3]
288.15 K | 1601.96
298.15 K | 1588.17
308.15 K | 1574.87
318.15 K | 1560.65

ClCCCCBr [1-bromo-4-chlorobutane]
[2]
Settings | mass density [kg/m3]
288.15 K | 1496.19
298.15 K | 1485.12
308.15 K | 1473.33
318.15 K | 1460.96

ClCCCCCBr [1-bromo-5-chloropentane]
[2]
Settings | mass density [kg/m3]
288.15 K | 1409.7
298.15 K | 1399.37
308.15 K | 1388.77
318.15 K | 1377.96

ClCCCCCCBr [1-bromo-6-chlorohexane]
[2]
Settings | mass density [kg/m3]
288.15 K | 1345.17
298.15 K | 1336.47
308.15 K | 1327.17
318.15 K | 1316.45
